From the CheMixHub ionic liquid set

Assay: xn = mol fraction of the nth substance listed

CC(O)C(=O)[O-].C[N+](C)(C)CCO + CCCO + O
100 kPa, x1 = 0.00408, x2 = 0.5431
Settings	viscosity [mPa·s]
288.15 K	3.551
298.15 K	2.585
308.15 K	1.943

CCCCCCCC[N+](CCCCCCCC)(CCCCCCCC)CCCCCCCC.[Br-] + CCCCCCCCCC(=O)O
Settings	electrical conductivity [S/m]	viscosity [mPa·s]
293 K, 100 kPa, x1 = 0.3333	–	910
298 K, 100 kPa, x1 = 0.3333	–	650
298.1 K, 100 kPa, x1 = 0.333	4.5e-06	–
303 K, 100 kPa, x1 = 0.3333	–	470
303.15 K, 101 kPa, x2 = 0.6667	–	469
313 K, 100 kPa, x1 = 0.3333	–	260
318.15 K, 100 kPa, x1 = 0.333	–	208
323.15 K, 101 kPa, x2 = 0.6667	–	174
333 K, 100 kPa, x1 = 0.3333	–	98
353.15 K, 101 kPa, x2 = 0.6667	–	56

CO/N=C(\C(=O)N[C@@H]1C(=O)N2C(C(=O)[O-])=C(CSc3nc(=O)c(=O)[n-]n3C)CS[C@H]12)c1csc(N)n1.[Na+].[Na+] + CCCC[n+]1ccc(C)cc1.[Br-] + O
viscosity [mPa·s], 100 kPa
Settings	x1 = 0.0003495, x2 = 0	x1 = 0.0008732, x2 = 0	x1 = 0.001391, x2 = 0	x1 = 0.002502, x2 = 0	x1 = 0.00312, x2 = 0	x1 = 0.003888, x2 = 0	x1 = 0.004767, x2 = 0	x1 = 0.005484, x2 = 0
288.15 K	1.196	1.273	1.365	1.604	1.745	1.964	2.205	2.45
293.15 K	1.053	1.12	1.2	1.399	1.527	1.701	1.918	2.122
298.15 K	0.935	0.994	1.062	1.231	1.348	1.495	1.674	1.858
303.15 K	0.829	0.885	0.945	1.1	1.195	1.323	1.48	1.638
308.15 K	0.744	0.794	0.849	0.982	1.07	1.184	1.322	1.455
